Results from the supplement of paper PMC5908809.

Experiments:
Assay in all cases: relative IC50 (inflection point of fitted viability curve, relative to fitted max inhibition); higher = less sensitive
Conditions in all cases: 72 h
[1] = tested on: DERL-7 (IL-2 2.5 ng/mL)
Experimental: (§1)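 Drug sensitivity and resistance testing: 5 concentrations over a 10,000-fold range, 72 h at 37 °C, viability by CellTiter-Glo normalised to DMSO and benzethonium chloride controls. IC50 is the inflection point of a logistic fit (min fixed at 0, max fitted), so it is relative to the fitted maximal inhibition. Kept only where fitted max inhibition is at least 50%.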

[2] = tested on: KAI3 (IL-2 2.5 ng/mL)
Experimental: as §1

[3] = tested on: NK-YS (IL-2 2.5 ng/mL)
Experimental: as §1

[4] = tested on: SNK-6 (IL-2 2.5 ng/mL)
Experimental: as §1

[5] = tested on: YT (IL-2 2.5 ng/mL)
Experimental: as §1

[6] = tested on: normal primary NK cells, pool 1 (3 donors) (IL-2 2.5 ng/mL)
Experimental: as §1

[7] = tested on: normal primary NK cells, pool 1 (3 donors), resting (IL-2 0 ng/mL)
Experimental: as §1

[8] = tested on: normal primary NK cells, pool 2 (3 donors) (IL-2 2.5 ng/mL)
Experimental: as §1

[9] = tested on: normal primary NK cells, pool 3 (3 donors) (IL-2 2.5 ng/mL)
Experimental: as §1

[10] = tested on: IMC-1 (IL-2 20 ng/mL)
Experimental: as §1

[11] = tested on: KHYG-1 (IL-2 2.5 ng/mL)
Experimental: as §1

[12] = tested on: NK-92 (IL-2 2.5 ng/mL)
Experimental: as §1

[13] = tested on: NKL (IL-2 2.5 ng/mL)
Experimental: as §1

Row | SMILES | relative IC50 [1] [nM] | relative IC50 [2] [nM] | relative IC50 [3] [nM] | relative IC50 [4] [nM] | relative IC50 [5] [nM] | relative IC50 [6] [nM] | relative IC50 [7] [nM] | relative IC50 [8] [nM] | relative IC50 [9] [nM] | relative IC50 [10] [nM] | relative IC50 [11] [nM] | relative IC50 [12] [nM] | relative IC50 [13] [nM]
1 | COc1ccc(C2=N[C@@H](c3ccc(Cl)cc3)[C@@H](c3ccc(Cl)cc3)N2C(=O)N2CCNC(=O)C2)c(OC(C)C)c1 [Nutlin-3] | 1470 | 731 | 1090 | 1010 | 1440 | 1490 | 442 | 1960 | 2750 |  |  |  | 
2 | C=CCc1cccc(/C=N/NC(=O)CN2CCN(Cc3ccccc3)CC2)c1O [PAC-1] | 1980 | 679 | 2740 | 996 | 1620 | 2890 | 3350 | 2050 | 1910 | 3020 | 543 | 845 | 591
3 | O=C(Nc1cccnc1)N1CCC(Cc2cccc(Oc3ccc(C(F)(F)F)cn3)c2)CC1 [PF-3845] |  |  | 2040 |  |  | 2860 | 3480 |  |  |  | 2560 |  | 1560
4 | CCCCc1nc2cc(/C=C/C(=O)NO)ccc2n1CCN(CC)CC [Pracinostat] | 168 | 69 | 189 | 207 | 213 | 163 | 93.7 | 159 | 211 | 233 | 149 | 112 | 76.5
5 | COc1cc(C(=O)O)ccc1NC(=O)[C@@H]1N[C@@H](CC(C)(C)C)[C@](C#N)(c2ccc(Cl)cc2F)[C@H]1c1cccc(Cl)c1F [RG7388] | 97 | 39.1 | 86.3 | 30.2 | 209 | 132 | 29.7 |  |  |  | 3560 | 2120 | 2450
6 | CNC(=O)c1cc(Oc2ccc(NC(=O)Nc3ccc(Cl)c(C(F)(F)F)c3)c(F)c2)ccn1 [Regorafenib] | 1190 | 3360 | 1620 | 86.7 | 1660 | 3020 | 1940 | 1750 |  |  | 2130 | 1040 | 1570
7 | N#CC[C@H](C1CCCC1)n1cc(-c2ncnc3[nH]ccc23)cn1 [Ruxolitinib] | 45.4 | 17.1 | 85.1 | 31.1 | 142 | 69 |  | 43.7 | 80.4 | 780 | 21.9 | 55.7 | 15.8
8 | COc1ccc(CCc2nc3cc(-c4c(C)noc4C)ccc3n2C[C@H](C)N2CCOCC2)cc1Cl [SGC-CBP30] | 1490 | 10100 | 3300 |  | 5050 | 3540 | 4340 | 3830 | 5310 |  | 4750 | 10200 | 1570
9 | CN1CCC(CNc2ccc3ncc(-c4cccc(OC(F)(F)F)c4)n3n2)CC1 [SGI-1776] | 1120 | 2000 | 2450 | 3220 | 2540 | 2200 | 1580 | 1590 | 2520 | 3130 | 2210 | 2480 | 1780
10 | CC(C)(C)c1cnc(CSc2cnc(NC(=O)C3CCNCC3)s2)o1 [SNS-032] | 61.3 | 75.8 | 38.6 | 74.8 | 84.1 | 45.8 | 53.4 | 54.3 | 102 | 36.2 | 277 | 224 | 22.6
11 | Cc1cc(C)c(/C=C2\C(=O)Nc3ccccc32)[nH]1 [Semaxanib] | > 10000 |  |  |  |  | > 10000 | > 10000 |  | > 10000 |  |  |  | > 10000
12 | c1ccc2c(CCNc3ccc(Nc4ccncc4)cc3)c[nH]c2c1 [Serdemetan] | 329 | 436 | 880 | 2980 | 1820 | 914 | 516 | 1260 | 1140 | 2580 | 1670 | 1790 | 212
13 | C=CCNC1=C2C[C@@H](C)C[C@H](OC)[C@H](O)[C@@H](C)/C=C(\C)[C@H](OC(N)=O)[C@@H](OC)/C=C\C=C(/C)C(=O)NC(=CC1=O)C2=O [Tanespimycin] | 126 | 76.3 | 80.2 | 106 | 248 | 79.8 | 145 | 127 | 290 | 291 | 247 | 123 | 59.1
14 | Nc1nc2[nH]cnc2c(=S)[nH]1 [Thioguanine] | 2350 | 1780 | 296 | 938 | 383 | 2100 |  | 1900 |  | 1300 | 322 | 742 | 1440
15 | C[C@@H]1CCN(C(=O)CC#N)C[C@@H]1N(C)c1ncnc2[nH]ccc12 [Tofacitinib] | 99.5 | 42.3 | 101 | 78 | 336 | 75 |  | 95.5 | 204 | 616 | 41 | 141 | 33.1
16 | CN(C)CCOc1ccc(/C(=C(/CCCl)c2ccccc2)c2ccccc2)cc1 [Toremifene] | 1090 | 2030 |  |  |  | 3740 | 2370 |  |  |  |  | 2190 | 
17 | COc1cc2c(NC3CCN(C(C)C)CC3)nc(N3CCC(F)(F)CC3)nc2cc1OCCCN1CCCC1 [UNC0642] | 3160 | 987 | 2440 | 1530 | 2690 | 1810 | 1560 | 3390 | 3450 | 2450 |  |  | 1640
18 | CCCCC(=O)OCC(=O)[C@]1(O)Cc2c(O)c3c(c(O)c2[C@@H](O[C@H]2C[C@H](NC(=O)C(F)(F)F)[C@H](O)[C@H](C)O2)C1)C(=O)c1c(OC)cccc1C3=O [Valrubicin] | 63.4 | 80.7 | 75.1 | 88.1 | 235 | 256 | 179 | 245 | 381 | 96 | 164 | 160 | 6.61
19 | C[C@]1(c2nc3c(C(N)=O)cccc3[nH]2)CCCN1 [Veliparib] |  |  |  |  |  | 2020 | 3590 |  |  |  |  |  | 
20 | O=C(Nc1ccc(-c2ccnc(Nc3ccc(N4CCOCC4)cc3)n2)cc1)C1CCCN1 (configuration not stated) [XL019] | 1370 | 1660 |  |  |  | 2220 | 1380 | 1510 | 1870 | 3200 | 2490 |  | 658
21 | COCC[n+]1c2c(n(Cc3cnccn3)c1C)C(=O)c1ccccc1C2=O [YM155] | 9.75 | 10 | 15.5 | 32.5 | 7.77 | 691 | 209 | 780 | 1330 | < 1 | 17.1 | 17.8 | 3.09
